Assay results: patent publication US8669233B2, “Combination of compounds for treating or preventing skin diseases” (Galderma Research & Development, priority 2009, dated 2014)

Assays:
[1] = test system: TPA-induced mouse ear edema; assay: TPA-induced mouse ear edema test, single topical application; format: in vivo, Balb/c mice; conditions: TPA 0.01%, T+6 h; for reduction in the ear edema (TPA): single topical application
Method: The test compounds are diluted in the TPA solution. […] Brimonidine is added at the concentration of 0.2%. […] FIG. 2 represents the average measurement of the ear edema thickness as a function of the dose of test compound as %, i.e. the average measurement of the ear thickness after treatment, from which is subtracted the average measurement of the thickness of the ear obtained with the control (nontreated) group, […]

[2] = test system: arachidonic acid-induced mouse ear edema; assay: Arachidonic acid-induced mouse ear edema test, single topical application; format: in vivo, Balb/c mice; conditions: 4% arachidonic acid
Method: Evaluation of the Anti-Inflammatory Activity of Ivermectin and of Brimonidine after a Single Topical Application in the Arachidonic Acid-Induced Mouse Ear Edema Test on Balb/c Mice
Arachidonic acid is dissolved in a mixture of THF/methanol at 4%.
Ivermectin is dissolved in the solution of arachidonic acid (AA) and tested at the concentration of 1%.
20 μl of the solution are applied to the internal surface of the right ear.
The thickness of the ear is measured at T+1 h, T+2 h and T+4 h.
FIG. 1 represents the average measurement of the thickness of the ear edema, i.e. the average measurement of the thickness of the ear after treatment, from which is subtracted the average measurement of the thickness of the ear obtained with the control (nontreated) group, this being after treatment with 4% arachidonic acid ( ? ), 1% ivermectin (□), 0.2% brimonidine ( ? ), and the combination of ivermectin and brimonidine ( ? ).

Compound: Ivermectin
- reduction in the ear edema (TPA) ([1]; ivermectin 0.3%): 57%
- reduction in the ear edema (TPA) ([1]; ivermectin 1%): 90%
- reduction of the ear edema caused by arachidonic acid ([2]; ivermectin alone 1%, single topical application): 56%

Compound: COc1ccc2c(c1)c(CC(=O)O)c(C)n2C(=O)c1ccc(Cl)cc1 [Indomethacin]
- inhibition of the ear edema caused by arachidonic acid ([2]; indomethacin at 5%, topical, Balb/c mice): 95%

Compound: CCCCC(=O)O[C@]1(C(=O)CO)[C@@H](C)C[C@H]2[C@@H]3CCC4=CC(=O)C=C[C@]4(C)[C@@]3(F)[C@@H](O)C[C@@]21C [β-methasone valerate (BMV), β-methasone valerate]
- inhibition of the mouse ear edema (TPA) ([1]; BMV at 0.01%): 89%

Compound: Brc1c(NC2=NCCN2)ccc2nccnc12 [brimonidine]
- reduction of the mouse ear edema (TPA) ([1]; brimonidine alone 0.2%): 50%
